These results are taken from PubChem BioAssay (NCI).

Structures are written as SMILES.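 Interpolation was linear, between the two tested concentrations surrounding the appropriate level; five concentrations were tested over 48 hours in 96-well plates. GI50 marks 50% less growth. TGI: concentration producing complete growth inhibition.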 A value given as a limit tells only on which side of the number the result lay.

Test systems include CCRF-CEM leukemia; HS 578T breast; COLO 205 colon; SK-MEL-2 melanoma; OVCAR-5 ovarian; SF-268 CNS; HCT-116 colon; UO-31 renal; A549 NSCLC; BT-549 breast.
Assay in all cases: DTP human tumour cell line panel, 48 h

As usually defined, the GI50 is the concentration giving 50% growth inhibition. Usually TGI stands for the concentration giving total growth inhibition. For `CC1(C)CC([P+](c2ccccc2)(c2ccccc2)c2ccccc2)=NN1`, the GI50 in the test with CCRF-CEM leukemia was 8.36 µM; in the test with HS 578T breast, 4.96 µM; in the test on COLO 205 colon it was 1.44 µM; in the test with SK-MEL-2 melanoma, 5.09 µM; with OVCAR-5 ovarian, 18.7 µM; in the test on SF-268 CNS, 5.09 µM. The GI50 with HCT-116 colon was 3.04 µM; with UO-31 renal, greater than 100 µM; in the test on A549 NSCLC it was 5.1 µM; in the test on BT-549 breast, 1.03 µM. Moreover, the TGI in the test on CCRF-CEM leukemia is greater than 100 µM; in the test on HS 578T breast, greater than 100 µM; in the test on COLO 205 colon, 3.36 µM; in the test with SK-MEL-2 melanoma, greater than 100 µM; in the test on OVCAR-5 ovarian it was greater than 100 µM; with SF-268 CNS, greater than 100 µM. Moreover, the TGI is greater than 100 µM in the test on HCT-116 colon, greater than 100 µM with UO-31 renal, greater than 100 µM with A549 NSCLC and 4.42 µM in the test on BT-549 breast.
Turning to `COc1cc(F)c(/C=C/c2cc(/C=C/c3cc(OC)c(OC)cc3F)n(-c3cc(F)cc(F)c3)n2)cc1OC`, the GI50 in the test on CCRF-CEM leukemia is 37.5 µM; with HS 578T breast, 4.04 µM; in the test with COLO 205 colon, 3.95 µM; with SK-MEL-2 melanoma, 3.08 µM; with OVCAR-5 ovarian, 2.96 µM; with SF-268 CNS, 3.15 µM. Further, the GI50 in the test with HCT-116 colon was 3.13 µM; in the test with UO-31 renal, 14.1 µM; in the test with A549 NSCLC, 3.29 µM; in the test on BT-549 breast, 2.35 µM. Moreover, the TGI is greater than 100 µM in the test on CCRF-CEM leukemia; 18.9 µM in the test with HS 578T breast; 26.8 µM in the test with COLO 205 colon; 10.3 µM in the test on SK-MEL-2 melanoma; 10.3 µM with OVCAR-5 ovarian; 13.6 µM in the test on SF-268 CNS. Moreover, the TGI with HCT-116 colon is 13.1 µM; in the test on UO-31 renal, 34.4 µM; in the test on A549 NSCLC, 11.4 µM; in the test with BT-549 breast, 7.51 µM.
`Cc1ccc(Nc2cc(C)nc(NCCCNc3ccnc4cc(Cl)ccc34)n2)cc1`: the GI50 in the test on CCRF-CEM leukemia is 0.945 µM; in the test with COLO 205 colon it was 1.36 µM; in the test with SK-MEL-2 melanoma, 1.83 µM; in the test with OVCAR-5 ovarian it was 1.85 µM; in the test with SF-268 CNS it was 1.52 µM; in the test with HCT-116 colon it was 1.09 µM. The GI50 in the test on UO-31 renal was 1.43 µM; in the test on A549 NSCLC, 1.65 µM; in the test on BT-549 breast, 1.63 µM. For the same molecule, the concentration for total growth inhibition (TGI) in the test with CCRF-CEM leukemia is 3.79 µM; in the test with COLO 205 colon, 2.77 µM; in the test with SK-MEL-2 melanoma, 3.34 µM; in the test on OVCAR-5 ovarian, 4.62 µM; in the test on SF-268 CNS it was 3.14 µM; in the test on HCT-116 colon, 2.81 µM. Moreover, the TGI in the test on UO-31 renal is 2.87 µM; in the test on A549 NSCLC it was 3.41 µM; in the test with BT-549 breast, 3.4 µM.
In the case of `Cc1cnccc1N=Nc1ccc(N(C)C)cc1`, the TGI is greater than 100 µM in the test with CCRF-CEM leukemia; greater than 100 µM in the test with HS 578T breast; 26.1 µM with COLO 205 colon; greater than 100 µM with OVCAR-5 ovarian; 56.5 µM in the test with SF-268 CNS; greater than 100 µM with HCT-116 colon. Also, the figures for the TGI with UO-31 renal, with A549 NSCLC and in the test on BT-549 breast were greater than 100 µM, greater than 100 µM and 49.3 µM, respectively.
Take `COC(=O)[C@]12CC[C@@H](C)[C@H](C)[C@@H]1C1=CC[C@@H]3[C@@]4(C)C(C=O)=C[C@@](C)(COS(C)(=O)=O)C4[C@H](O)C[C@@]3(C)[C@]1(C)CC2` (stereo partly drawn): the GI50 in the test with CCRF-CEM leukemia was 0.782 µM; with HS 578T breast, 3.12 µM; in the test with COLO 205 colon, 1.85 µM; in the test on SK-MEL-2 melanoma it was 2.06 µM; in the test with OVCAR-5 ovarian it was 1.96 µM; in the test on SF-268 CNS, 2 µM. Also, the GI50 in the test on HCT-116 colon was 1.1 µM; in the test on UO-31 renal, 1.04 µM; in the test with A549 NSCLC it was 2.64 µM. For the same molecule, the TGI came out at 3.22 µM in the test with CCRF-CEM leukemia; 8.77 µM in the test with HS 578T breast; 3.93 µM in the test on COLO 205 colon; 5.03 µM in the test with SK-MEL-2 melanoma; 6.5 µM in the test on OVCAR-5 ovarian; 4.82 µM in the test on SF-268 CNS. Moreover, the TGI is 2.57 µM in the test on HCT-116 colon, 2.35 µM in the test on UO-31 renal and 11 µM in the test on A549 NSCLC.
For the molecule `COc1ccc(Cn2cc3c(c2-c2cc(OC)c(OC)c(OC)c2)CCc2cnoc2-3)cc1N`, the GI50 in the test with CCRF-CEM leukemia was 0.0384 µM; in the test with HS 578T breast it was 0.0343 µM; in the test with COLO 205 colon, 0.251 µM; with OVCAR-5 ovarian it was 0.324 µM; in the test with SF-268 CNS, 0.0792 µM; with HCT-116 colon it was 0.045 µM. Also, the figures for the GI50 with UO-31 renal, with A549 NSCLC and in the test with BT-549 breast were 0.228 µM, 0.0821 µM and 0.173 µM, respectively. In addition, the TGI with HS 578T breast is greater than 100 µM; in the test with COLO 205 colon it was 0.789 µM; in the test on OVCAR-5 ovarian it was greater than 100 µM; in the test on SF-268 CNS it was greater than 100 µM; in the test on HCT-116 colon, 2.84 µM; with UO-31 renal, greater than 50.9 µM. The concentration for total growth inhibition (TGI) in the test with A549 NSCLC and in the test with BT-549 breast was greater than 100 µM in each case.
As for `COc1c(Cl)ccc2c(-c3nc4cc(Cl)c(F)cc4s3)cc(=O)oc12`, the GI50 is 26.8 µM with HS 578T breast; 10.1 µM in the test on COLO 205 colon; 21.4 µM in the test with SK-MEL-2 melanoma; 15.3 µM with OVCAR-5 ovarian; 2.93 µM in the test on SF-268 CNS; 14.1 µM in the test on HCT-116 colon. Further, the GI50 was 1.44 µM with UO-31 renal, 17.9 µM in the test on A549 NSCLC and 7.58 µM in the test on BT-549 breast. Also, the TGI was greater than 100 µM in the test on HS 578T breast; 38.3 µM with COLO 205 colon; 87.9 µM with SK-MEL-2 melanoma; greater than 53.3 µM in the test on OVCAR-5 ovarian; 8.89 µM with SF-268 CNS; greater than 61.6 µM in the test with HCT-116 colon. Moreover, the values for the TGI in the test with UO-31 renal, with A549 NSCLC and with BT-549 breast were 3.15 µM, greater than 100 µM and 37.5 µM, respectively.
On to `CN(C)CCSCCO`, for which the TGI in the test on HS 578T breast, in the test with COLO 205 colon, in the test on SK-MEL-2 melanoma, in the test on OVCAR-5 ovarian, in the test with SF-268 CNS and in the test with HCT-116 colon was greater than 100 µM in each case. Moreover, the TGI in the test with UO-31 renal, in the test on A549 NSCLC and with BT-549 breast was greater than 100 µM throughout.
For `Nc1cc(S(N)(=O)=O)ccc1SSc1ccc(S(N)(=O)=O)cc1N`, the TGI with HS 578T breast, in the test with COLO 205 colon, with SK-MEL-2 melanoma, in the test on OVCAR-5 ovarian, in the test with SF-268 CNS and with HCT-116 colon was greater than 100 µM each time. Also, the TGI in the test on UO-31 renal, in the test with A549 NSCLC and with BT-549 breast was greater than 100 µM in each case.
